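Dose response: 5 concentrations. Exposure: 48 h. Format: 96-well plates. Endpoint: linear interpolation; highest concentration if not reached. GI50 is the concentration that inhibits growth by half.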 Calls of active or inactive are those of the source. Rule as the data show it: active = GI50 up to about 1.1 µM and inactive = higher.
Columns and labels:
Assay in all cases: NCI anticancer screen, dose series, 48 h
[1] = tested on: DMS-273
[2] = tested on: TK-10
[3] = tested on: SK-MEL-28
[4] = tested on: EKVX
[5] = tested on: A498
[6] = tested on: UO-31
[7] = tested on: IGROV-1
[8] = tested on: SNB-78
[9] = tested on: HCT-116
[10] = tested on: RXF 631
[11] = tested on: ACHN
[12] = tested on: OVCAR-8
[13] = tested on: RPMI-8226
[14] = tested on: K562
[15] = tested on: HOP-18
[16] = tested on: RXF 393
[17] = tested on: HOP-92
[18] = tested on: CAKI-1
[19] = tested on: OVCAR-4
[20] = tested on: M14
[21] = tested on: HT-29
[22] = tested on: NCI-H226
[23] = tested on: KM-20L2
[24] = tested on: COLO 205
[25] = tested on: SK-MEL-5
[26] = tested on: OVCAR-3
[27] = tested on: Malme-3M
[28] = tested on: SF-268
[29] = tested on: U-251
[30] = tested on: NCI-H522
[31] = tested on: NCI-H460
[32] = tested on: UACC-257
[33] = tested on: SW-620
[34] = tested on: SK-OV-3
[35] = tested on: HCC 2998
[36] = tested on: SNB-75
[37] = tested on: SF-295
[38] = tested on: OVCAR-5
[39] = tested on: KM12
[40] = tested on: MOLT-4
[41] = tested on: A549
[42] = tested on: DMS-114
[43] = tested on: M19-MEL
[44] = tested on: UACC-62
[45] = tested on: DLD-1
[46] = tested on: HOP-62
[47] = tested on: CCRF-CEM
[48] = tested on: LXFL 529
[49] = tested on: NCI-H23
[50] = tested on: 786-0
[51] = tested on: SR
[52] = tested on: HCT-15
[53] = tested on: SF-539
[54] = tested on: XF498
[55] = tested on: LOX IMVI
[56] = tested on: SK-MEL-2
[57] = tested on: SN12C
[58] = tested on: HL-60

COc1cc(OC(=O)c2c(O)cc(O)c(O)c2C)cc(C)c1C(=O)Oc1cc(C)c(C(=O)O)c(O)c1
GI50 [1]: > 100 µM (inactive) | GI50 [2]: > 100 µM (inactive) | GI50 [3]: > 100 µM (inactive) | GI50 [4]: > 100 µM (inactive) | GI50 [5]: > 100 µM (inactive) | GI50 [6]: > 100 µM (inactive) | GI50 [7]: > 100 µM (inactive) | GI50 [8]: > 100 µM (inactive) | GI50 [9]: > 100 µM (inactive) | GI50 [10]: > 100 µM (inactive) | GI50 [11]: > 100 µM (inactive) | GI50 [12]: > 100 µM (inactive) | GI50 [13]: > 100 µM (inactive) | GI50 [14]: > 100 µM (inactive) | GI50 [15]: > 100 µM (inactive) | GI50 [16]: > 100 µM (inactive) | GI50 [17]: > 100 µM (inactive) | GI50 [18]: > 100 µM (inactive) | GI50 [19]: > 100 µM (inactive) | GI50 [20]: > 100 µM (inactive) | GI50 [21]: > 100 µM (inactive) | GI50 [22]: > 100 µM (inactive) | GI50 [23]: > 100 µM (inactive) | GI50 [24]: > 100 µM (inactive) | GI50 [25]: > 100 µM (inactive) | GI50 [26]: > 100 µM (inactive) | GI50 [27]: > 100 µM (inactive) | GI50 [28]: > 100 µM (inactive) | GI50 [29]: > 100 µM (inactive) | GI50 [30]: > 100 µM (inactive) | GI50 [31]: > 100 µM (inactive) | GI50 [32]: > 100 µM (inactive) | GI50 [33]: > 100 µM (inactive) | GI50 [34]: > 100 µM (inactive) | GI50 [35]: > 100 µM (inactive) | GI50 [36]: > 100 µM (inactive) | GI50 [37]: > 100 µM (inactive) | GI50 [38]: > 100 µM (inactive) | GI50 [39]: > 100 µM (inactive) | GI50 [40]: > 100 µM (inactive) | GI50 [41]: > 100 µM (inactive) | GI50 [42]: > 100 µM (inactive) | GI50 [43]: > 100 µM (inactive) | GI50 [44]: > 100 µM (inactive) | GI50 [45]: > 100 µM (inactive) | GI50 [46]: > 100 µM (inactive) | GI50 [47]: > 100 µM (inactive) | GI50 [48]: > 100 µM (inactive) | GI50 [49]: > 100 µM (inactive) | GI50 [50]: > 100 µM (inactive) | GI50 [51]: > 100 µM (inactive) | GI50 [52]: > 100 µM | GI50 [53]: > 100 µM (inactive) | GI50 [54]: > 100 µM (inactive) | GI50 [55]: > 100 µM (inactive) | GI50 [56]: > 100 µM (inactive) | GI50 [57]: > 100 µM (inactive) | GI50 [58]: > 100 µM (inactive)

Source: ChEMBL document CHEMBL1201862, “PubChem BioAssay data set” (2004)
